Measured values published in patent US12419837B2, “Liposomal composition containing mild acidic active agent” (TAIWAN LIPOSOME COMPANY, LTD., priority 2016, dated 2025).
Like-named read-outs stand apart in the source and are kept apart here.

Columns and labels:
Solubility = assay type: physicochemical; conditions: PGE1 as API
[1] = cited from earlier work

solubility in tert-Butyl alcohol (TBA) (Solubility): soluble | solubility in water (Solubility): water-insoluble
Compound: CCCCC[C@H](O)/C=C/[C@H]1[C@H](O)CC(=O)[C@@H]1CCCCCCC(=O)O [PGE1, Prostaglandin E1]
half life in human body ([1]; human body (b5)): about 30 seconds | half life in human body ([1]; human body): 0.5 min and 10 min
